Assay results taken from patent US8975015B2, “Antimicrobial compounds” (priority 2009, dated 2015).
In brackets after ≈: the same amount, converted by molar mass. Where two headings read alike, the source gives them in different places.

Tests used:
[1] = test system: Mycobacterium tuberculosis (replicating TB); test: microbe, parasite or virus in culture; type: cell-based; conditions: Mycobacterium tuberculosis, replicating TB, read-out: MABA MIC
[2] = test system: non-replicating TB; test: microbe, parasite or virus in culture; type: cell-based, Mycobacterium tuberculosis; conditions: Mycobacterium tuberculosis, read-out: LORA MIC
[3] = type: in vitro ADME; conditions: simulated gi fluid
[4] = test system: cultured kidney cells from the African Green monkey; test: cells; type: cell-based; conditions: Chlorocebus sabaeus
[5] = type: in vitro ADME
Protocol: Compound P1 was also tested for stability in simulated intestinal fluid.

[6] = human, microsomes
[7] = mouse, microsomes
[8] = test system: M. smegmatis; test: MIC against M. smegmatis; type: cell-based; conditions: Mycolicibacterium smegmatis

CO[C@H]1/C=C/O[C@@]2(C)Oc3c(C)c(O)c4c(O)c(c(/C=N/N5CCN(C)CC5)c(O)c4c3C2=O)NC(=O)/C(C)=C\C=C\[C@H](C)[C@H](O)[C@@H](C)[C@@H](O)[C@@H](C)[C@H](OC(C)=O)[C@@H]1C [Rifampin, reference compound]
MIC [1]: 0.06 µM (≈ 0.0494 µg/mL) | MIC [2]: 1.34 µM (≈ 1.1 µg/mL)

O=C1C=Cc2nocc2/C1=C1/Nc2ccc(Cl)cc2C1=O [Example 3, 4-(5-chloro-3-oxoindolin-2-ylidene)benzo[c]isoxazol-5(4H)-one]
MIC ([1]; 8-0.03 μM test concentration): 0.82 µM (≈ 0.245 µg/mL) | MIC ([1]; 32-0.2 μM test concentration): 0.93 µM (≈ 0.278 µg/mL) | MIC ([2]; non-replicating TB): 0.83 µM (≈ 0.248 µg/mL)

O=C1C=Cc2nocc2/C1=C1/Nc2ccccc2C1=O [Example P1, 4-(3-oxoindolin-2-ylidene)benzo[c]isoxazol-5(4H)-one]
% P1 remaining ([3]; 0 h): 100% | % P1 remaining ([3]; 5 min): 99.2% | % P1 remaining ([3]; 25 min): 99.6% | % P1 remaining ([3]; 0.75 h): 101.3% | % P1 remaining ([3]; 65 min): 99.6% | % P1 remaining ([3]; 80 min): 97.0% | % P1 remaining ([3]; 100 min): 101.6% | % P1 remaining ([3]; 2 h): 102.1% | % P1 remaining ([3]; 140 min): 100.2% | IC50 ([4]; African Green monkey kidney cells): > 50 µg/mL | IC50 ([4]; Table 7, reaction products of T4MO isoform I100V with feedstock): 20.8 µg/mL (≈ 78.8 µM) | % P1 ([5]; 0 min): 100% | % P1 ([5]; 5 min): 99.9% | % P1 ([5]; 25 min): 95.4% | % P1 ([5]; 45 min): 97.7% | % P1 ([5]; 65 min): 92.1% | % P1 ([5]; 85 min): 86.2% | % P1 ([5]; 125 min): 86.8% | % P1 ([5]; 145 min): 83.5% | MIC [1]: 0.49 µM (≈ 0.129 µg/mL) | MIC ([2]; non-replicating TB): 0.48 µM (≈ 0.127 µg/mL) | half-life [6]: about 7 or 8 minutes | half-life [7]: about 3 or 4 minutes | MIC [8]: 4.05 µg/mL (≈ 15.3 µM)

O=C1C=Cc2nocc2/C1=C1/Nc2cc(Cl)ccc2C1=O [Example 2, 4-(6-chloro-3-oxoindolin-2-ylidene)benzo[c]isoxazol-5(4H)-one]
MIC ([1]; 8-0.03 μM test concentration): 1.9 µM (≈ 0.568 µg/mL) | MIC ([1]; 32-0.2 μM test concentration): 1.92 µM (≈ 0.573 µg/mL)

NNC(=O)c1ccncc1 [Isoniazid, reference compound]
MIC [1]: 0.56 µM (≈ 0.0768 µg/mL) | MIC [2]: > 128 µM
